Reference: patent publication US8598159B2, “Therapeutic pyrazoloquinoline derivatives” (Dart Neuroscience (Cayman) Ltd., priority 2007, dated 2013)

Experiments:
GABAA receptors = assay: Electrophysiology assay (two-electrode voltage clamp, Xenopus oocytes expressing GABAA receptors); format: cell-based; conditions: positive (Pos) or negative (Neg) modulation of current at GABA EC20, screening concentration of 10 μM
Protocol: The modulation of GABAA function is determined by changes in current as determined in an electrophysiology assay, as is detailed below.
mRNA was prepared from lyophilized plasmid pellets containing cDNA inserts encoding the specific GABAA receptor subunit. cDNAs encoding the α2, α3, and γ3 subunits were subcloned into pBluescript, SK^−. cDNAs encoding the a 1 and a 5 subunits were subcloned into prC while cDNA encoding the β2 subunit was subcloned into pcDNA1. The cDNA construct encoding the g 2s subunit is in the pGH19 expression construct. Overnight cultures of transformed DH5a bacterial cells were performed to grow sufficient quantities for maxiprep isolation of the plasmid cDNA. The resulting plasmid cDNA was linearized by digestion with an appropriate restriction enzyme that cleaves distal to the cDNA insert [XbaI (α1, β2), NotI (α3, γ2 s), SacII (α2), or ApaI (α5)]. Following digestion, plasmid cDNA was treated with proteinase K and extracted with phenol/chloroform/isoamyl alcohol, followed by ethanol precipitation. cDNA quality was assessed by agarose-gel electrophoresis (1.5% agarose gel). Samples were stored at −20° C. until use. In vitro transcription was performed with T7 RNA polymerase. mRNA was then stored at −80° C. until use. Plasmids were linearized with appropriate restriction enzymes before in vitro transcription using the Message Machine kit (Ambion, Austin, Tex.).
GABAA receptor expression in Xenopus oocytes: Following 45 min of 0.15% Tricaine anesthesia, an ovarian section containing the follicular oocytes was removed from the frog through a lateral abdominal incision. Oocytes were immediately placed in a calcium-free solution (NaCl 96 mM, MgCl2 1 mM, KCl 2 mM, Hepes 50 mM, pyruvate 2.5 mM, gentamycin 100 μg/mL, penicillin-streptomycin 50 U/mL, pH 7.4). Following 1.5-2 hour incubation in 0.2% collagenase (type II, Sigma Chemical Co., St. Louis, Mo.) at room temperature, individual Dumont stage V and VI oocytes were transferred to an incubator and maintained overnight in Barth's solution (NaCl 84 mM, NaHCO3 2.4 mM, MgSO4 0.82 mM, KCl 1 mM, Ca(NO3)2 0.33 mM, CaCl2 0.41 mM, Tris/HCl 7.5 mM, pyruvate 2.5 mM, gentamycin 50 μg/mL, penicillin-streptomycin, 100 units/mL, pH 7.4) at 18-20° C. and used for experiments 1-5 days post-injection. Oocytes were injected solution using an electronic microinjector (Drummond, Broomall, Pa.) with 50 nL of RNA containing 0.3-0.5 ng of each subunit RNA in a 1:1:2 ratio. The injected oocytes were used for experiments after 1-5 days of incubation in Barth's solution at 18-20° C.
Measurements of ion currents from oocytes expressing GABAA receptors were performed using a Warner two-electrode voltage-clamp amplifier (Warner Instruments, Inc., Foster City, Calif.) (Park-Chung, M. A., et al. (1999) Brain Res. 830: 72-87 incorporated herein in its entirety). Microelectrodes were fabricated from borosilicate glass capillaries with a programmed pipette puller (Sutter Instrument Co., CA). Microelectrode resistance was 1-3 MΩ when filled with 3 M KCl. The oocyte recording chamber was continuously perfused with ND-96 solution. Oocytes were clamped at a holding potential of −70 mV during data acquisition. The membrane current was filtered at 10 Hz and sampled at 100 Hz. Compounds were applied by a gravity-driven external perfusion system. The working volume of the recording chamber was […] and the rate of the perfusion was approximately […]. Compound application was 20-25 sec followed by a minimum of 150 sec wash. Data acquisition and external perfusion was computer controlled by custom-developed software. All experiments were performed at room temperature (22-24° C.). Dose-response data from each oocyte were fitted to the Hill equation by non-linear regression using the equation: IGABA=Emax/(1+(EC50/c)nH)
Emax is the maximum response, EC50 is the concentration producing 50% of the maximal response, nH is the Hill coefficient and c is the concentration of agonist. […]

[1] = molecular target: GABAA central benzodiazepine receptor; assay: Benzodiazepine binding assay ((3H)-flunitrazepam displacement); conditions: read-out: BZ binding assay (IC50); rat whole brain (except cerebellum), 1 nM (3H)-flunitrazepam, 60 minutes at 25° C.; 3-concentration dose response curve

| Structure (SMILES) | EP Result (GABAA receptors) | IC50 [1] |
| --- | --- | --- |
| O=c1c2c[nH]c3cc(N4CCNCC4)c(F)cc3c-2nn1-c1ccsc1 [28p, 8-fluoro-7-(piperazin-1-yl)-2-(thiophen-3-yl)-2,5-dihydro-pyrazolo[4,3-c]quinolin-3-one] | Neg | < 1 µM |
| O=c1c2c[nH]c3cc(N4CCNCC4)ccc3c-2nn1-c1ccccc1 [14a, 2-Phenyl-7-piperazin-1-yl-2,5-dihydro-pyrazolo[4,3-c]quinolin-3-one] | Neg | > 1 µM |
| O=c1c2c[nH]c3cc(Cl)c(N4CCNCC4)cc3c-2nn1-c1ccccc1 [19j, 7-Chloro-2-phenyl-8-piperazin-1-yl-2,5-dihydro-pyrazolo[4,3-c]quinolin-3-one] | Neg | < 1 µM |
| COc1ccc(-n2nc3c4cc(N5CCN(C(C)C)CC5)ccc4[nH]cc-3c2=O)cc1 [19i, 8-(4-Isopropylpiperazin-1-yl)-2-(4-methoxyphenyl)-2,5-dihydro-pyrazolo[4,3-c]quinolin-3-one] | Pos | < 1 µM |
| COc1ccc(-n2nc3c4ccc(N5CCN(C)CC5)cc4[nH]cc-3c2=O)cc1 [14f, 2-(4-Methoxyphenyl)-7-(4-methylpiperazin-1-yl)-2,5-dihydro-pyrazolo[4,3-c]quinolin-3-one] | Neg | > 1 µM |
| O=c1c2c[nH]c3cc(Cl)c(N4CCOCC4)cc3c-2nn1-c1ccccc1 [19k, 7-Chloro-8-morpholin-4-yl-2-phenyl-2,5-dihydro-pyrazolo[4,3-c]quinolin-3-one] | Pos | < 1 µM |

The remaining lines, values ahead:

| EP Result (GABAA receptors) | IC50 [1] | Structure (SMILES) |
| --- | --- | --- |
| Pos | < 1 µM | COCCN1CCN(c2ccc3[nH]cc4c(=O)n(-c5ccccc5)nc-4c3c2)CC1 [19f, 8-[4-(2-Methoxyethyl)-piperazin-1-yl]-2-phenyl-2,5-dihydro-pyrazolo[4,3-c]quinolin-3-one] |
| Pos | < 1 µM | CC(C)N1CCN(c2ccc3[nH]cc4c(=O)n(-c5ccccc5)nc-4c3c2)CC1 [19b, 8-(4-Isopropylpiperazin-1-yl)-2-phenyl-2,5-dihydro-pyrazolo[4,3-c]quinolin-3-one] |
| Pos | < 1 µM | O=c1c2c[nH]c3ccc(N4CCCCC4)cc3c-2nn1-c1ccccc1 [19g, 2-Phenyl-8-piperidin-1-yl-2,5-dihydro-pyrazolo[4,3-c]quinolin-3-one] |
| Pos | < 1 µM | CC1CC(C)CN(c2cc3[nH]cc4c(=O)n(-c5ccccc5)nc-4c3cc2F)C1 (stereo not drawn) [28e, 7-(3,5-Dimethylpiperidin-1-yl)-8-fluoro-2-phenyl-2,5-dihydro-pyrazolo[4,3-c]quinolin-3-one] |
| Pos | < 1 µM | O=c1c2c[nH]c3c(F)c(N4CCOCC4)c(F)cc3c-2nn1-c1ccccc1 [44c, 6,8-Difluoro-7-(morpholin-4-yl)-2-phenyl-2,5-dihydro-pyrazolo[4,3-c]quinolin-3-one] |
| Pos | < 1 µM | COc1ccc(-n2nc3c4cc(N5CCN(C)CC5)ccc4[nH]cc-3c2=O)cc1 [7f, 2-(4′-Methoxyphenyl)-8-(4-methylpiperazin-1-yl)-2,5-dihydro-pyrazolo[4,3-c]quinolin-3-one] |
| Pos | < 1 µM | CC1CN(c2cc3[nH]cc4c(=O)n(-c5ccccc5)nc-4c3cc2F)CC(C)O1 (stereo not drawn) [28g, 7-(2,6-Dimethylmorpholin-4-yl)-8-fluoro-2-phenyl-2,5-dihydro-pyrazolo[4,3-c]quinolin-3-one] |
| Pos | < 1 µM | O=c1c2c[nH]c3ccc(N4CCNCC4)cc3c-2nn1-c1ccc(Cl)cc1 [7c, 2-(4′-Chlorophenyl)-8-piperazin-1-yl-2,5-dihydro-pyrazolo[4,3-c]quinolin-3-one] |
| Neg | < 1 µM | CN1CCN(c2ccc3c4nn(-c5ccccc5)c(=O)c-4c[nH]c3c2)CC1 [14b, 7-(4-Methylpiperazin-1-yl)-2-phenyl-2,5-dihydro-pyrazolo[4,3-c]quinolin-3-one] |
